Experimental data from paper PMC12754783 (2025).

Tests used:
[1] = system: 5YEY (DNA, G4) GGGTTAGGGTTAGGGTTTGGG; assay: native ESI-MS screening (single concentration); conditions: 0.5 mM K+; 100 mM TMAA pH 6.8, 10 µM DNA, 20 µM ligand; stepwise KD1 (KD2 40)
[2] = system: 1XAV (DNA, G4) TGAGGGTGGGTAGGGTGGGTAA; assay: native ESI-MS screening (single concentration); conditions: 0.5 mM K+, 100 mM TMAA pH 6.8, 10 µM DNA, 20 µM ligand
[3] = system: 222T_mA (DNA, G4) TGGGTTGGGAAGGGTTGGGT; assay: native ESI-MS screening (single concentration); conditions: 0.5 mM K+, 100 mM TMAA pH 6.8, 10 µM DNA, 20 µM ligand
[4] = system: 222T (DNA, G4) TGGGTTGGGTTGGGTTGGGT; assay: native ESI-MS screening (single concentration); conditions: 0.5 mM K+, 100 mM TMAA pH 6.8, 10 µM DNA, 20 µM ligand
[5] = system: T24 (DNA, single strand) TTTTTTTTTTTTTTTTTTTTTTTT; assay: native ESI-MS titration; conditions: 0.5 mM K+; 100 mM TMAA pH 6.8, 10 µM DNA, up to 40 µM ligand
[6] = system: 5YEY (DNA, G4) GGGTTAGGGTTAGGGTTTGGG; assay: UV melting 295 nm; conditions: 0.5 mM K+; 100 mM TMAA pH 6.8; 10 µM DNA, 20 µM QQPQ
[7] = system: 26TTA (DNA, G4) TTAGGGTTAGGGTTAGGGTTAGGGTT; assay: native ESI-MS screening (single concentration); conditions: 0.5 mM K+; 100 mM TMAA pH 6.8, 10 µM DNA, 20 µM ligand; stepwise KD1
[8] = system: 5YEY (DNA, G4) GGGTTAGGGTTAGGGTTTGGG; assay: native ESI-MS titration; conditions: 0.5 mM K+, 100 mM TMAA pH 6.8, 10 µM DNA
TG4T (DNA, G4) TGGGGT = assay: native ESI-MS screening (single concentration); conditions: K+ 0.5 mM (KCl) with 100 mM TMAA, or NH4+ 150 mM; source does not say which; pH 6.8, 10 µM DNA, 20 µM ligand; stepwise KD1
[9] = system: 22GT_18T (DNA, G4) GGGTTAGGGTTAGGGTTTGGGT; assay: native ESI-MS screening (single concentration); conditions: 0.5 mM K+; 100 mM TMAA pH 6.8, 10 µM DNA, 20 µM ligand; stepwise KD1
[10] = system: 222T (DNA, G4) TGGGTTGGGTTGGGTTGGGT; assay: UV melting 295 nm; conditions: 0.5 mM K+; 100 mM TMAA pH 6.8; 10 µM DNA, 20 µM QQPQ; two transitions
[11] = system: T30177TT (DNA, G4) TTGTGGTGGGTGGGTGGGT; assay: UV melting 295 nm; conditions: 0.5 mM K+; 100 mM TMAA pH 6.8; 10 µM DNA, 20 µM QQPQ; two transitions
[12] = system: 1XAV (DNA, G4) TGAGGGTGGGTAGGGTGGGTAA; assay: native ESI-MS titration; conditions: 0.5 mM K+; 100 mM TMAA pH 6.8, 10 µM DNA; stepwise KD1
[13] = system: 21G (DNA, G4) GGGTTAGGGTTAGGGTTAGGG; assay: native ESI-MS titration; conditions: 0.5 mM K+; 100 mM TMAA pH 6.8, 10 µM DNA; KD1 differs 20-fold from 5YEY
[14] = stepwise KD1, exact value in Table S3

CC(=O)Nc1cccc2c(OCCCN)cc(C(=O)NCc3cccc(C(=O)NCc4cccc(C(=O)Nc5cccc6c(OCCCN)cc(C(=O)O)nc56)n4)n3)nc12
KD1 [1]: 75 µM
KD1 ([2]; stepwise KD1 (KD2 7.4)): 5.2 µM
KD1 ([3]; stepwise KD1 (KD2 3.4)): 8.9 µM
KD1 ([4]; stepwise KD1 (KD2 5.4)): 2.3 µM
KD [5]: > 100 µM

CC(=O)Nc1cccc2c(OCCCN)cc(C(=O)NCc3cccc(C(=O)Nc4cccc5c(OCCCN)cc(C(=O)O)nc45)n3)nc12
KD1 ([2]; stepwise KD1 (KD2 27)): 15 µM
KD1 ([3]; stepwise KD1 (KD2 14)): 25 µM
KD1 ([4]; stepwise KD1 (KD2 22)): 4.8 µM
KD [5]: > 100 µM

CC(=O)Nc1cccc2c(OCCCN)cc(C(=O)Nc3cccc4c(OCCCN)cc(C(=O)NCc5cccc(C(=O)Nc6cccc7c(OCCCN)cc(C(=O)O)nc67)n5)nc34)nc12
ΔTm [6]: +8.2 °C
KD1 [7]: ~ 5 µM
KD1 ([8]; stepwise KD1 (KD2 200 ± 70), screening gave 1.5): 0.54 ± 0.1 µM
KD1 (TG4T (DNA, G4) TGGGGT): ~ 5 µM
KD1 ([2]; stepwise KD1 (KD2 1.5)): 0.5 µM
KD1 ([3]; stepwise KD1 (KD2 1.0)): 2.2 µM
KD1 [9]: ~ 5 µM
ΔTm [10]: ~ +26 °C
KD1 ([4]; stepwise KD1 (KD2 2.1)): 0.5 µM
ΔTm [11]: 17 °C
KD [5]: > 100 µM

CC(=O)Nc1cccc2c(OCCCN)cc(C(=O)Nc3cccc4c(OCCCN)cc(C(=O)Nc5cccc6c(OCCCN)cc(C(=O)Nc7cccc8c(OCCCN)cc(C(=O)Nc9cccc%10c(OCCCN)cc(C(=O)Nc%11cccc%12c(OCCCN)cc(C(=O)Nc%13cccc%14c(OCCCN)cc(C(=O)Nc%15cccc%16c(OCCCN)cc(C(=O)O)nc%15%16)nc%13%14)nc%11%12)nc9%10)nc78)nc56)nc34)nc12
KD1 [12]: 28 ± 6.7 µM

CC(=O)Nc1cccc2c(OCCCN)cc(C(=O)Nc3cccc4c(OCCCN)cc(C(=O)Nc5cccc6c(OCCCN)cc(C(=O)Nc7cccc8c(OCCCN)cc(C(=O)Nc9cccc%10c(OCCCN)cc(C(=O)O)nc9%10)nc78)nc56)nc34)nc12
KD1 [8, 14]: < 10 µM

CC(=O)Nc1cccc2c(OCCCN)cc(C(=O)Nc3cccc4c(OCCCN)cc(C(=O)Nc5cccc6c(OCCCN)cc(C(=O)Nc7cccc8c(OCCCN)cc(C(=O)O)nc78)nc56)nc34)nc12
KD1 [8, 14]: < 10 µM
KD1 ([3]; stepwise KD1 (KD2 4.5)): 12 µM
KD1 [12]: 0.075 ± 0.059 µM
KD1 [13]: 330 ± 23 µM
KD1 ([4]; stepwise KD1 (KD2 2.0)): 1.1 µM
